According to PubChem BioAssay (NCI):
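Values below derive from 48-hour exposures of cells grown in 96-well plates, with endpoints linearly interpolated between the two concentrations bracketing the appropriate inhibition level. GI50: concentration for 50% inhibition of growth. TGI: total growth inhibition.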

Legend:
Experiment in all cases: inhibition of tumour cell growth, NCI panel, 48 h
NCI-H226 lung = tested on: NCI-H226 lung
K-562 leukemia = tested on: K-562 leukemia
HOP-92 NSCLC = tested on: HOP-92 NSCLC
KM12 colon = tested on: KM12 colon
DU-145 prostate = tested on: DU-145 prostate
HL-60(TB) leukemia = tested on: HL-60(TB) leukemia
NCI/ADR-RES ovarian = tested on: NCI/ADR-RES ovarian
TK-10 renal = tested on: TK-10 renal
SK-MEL-2 melanoma = tested on: SK-MEL-2 melanoma
T-47D breast = tested on: T-47D breast

C/C(=N\NC(=O)CC#N)C(CN1CCCCC1)C(c1ccccc1)c1c(O)c2ccccc2oc1=O (stereo unspecified)
TGI (NCI-H226 lung): > 100 µM
TGI (K-562 leukemia): > 100 µM
TGI (HOP-92 NSCLC): 95.7 µM
TGI (KM12 colon): > 100 µM
TGI (DU-145 prostate): > 100 µM
TGI (HL-60(TB) leukemia): 63.3 µM
TGI (NCI/ADR-RES ovarian): > 100 µM
TGI (TK-10 renal): > 100 µM
TGI (SK-MEL-2 melanoma): > 100 µM

CCN(CC)CCCOc1ccc2ncnc(Nc3ccc(Oc4cccc(C(F)(F)F)c4)c(Cl)c3)c2c1
GI50 (T-47D breast): 1.41 µM
TGI (T-47D breast): 3.76 µM
GI50 (K-562 leukemia): 1.21 µM
TGI (K-562 leukemia): 8.73 µM
GI50 (HOP-92 NSCLC): 1.23 µM
TGI (HOP-92 NSCLC): 2.61 µM
GI50 (KM12 colon): 1.77 µM
TGI (KM12 colon): 3.24 µM
GI50 (DU-145 prostate): 1.39 µM
TGI (DU-145 prostate): 2.74 µM
GI50 (TK-10 renal): 1.14 µM
TGI (TK-10 renal): 2.56 µM

CCC#CC[C@H](O)C/C=C1/C(=O)C=C[C@@H]1C/C=C\CCCC(=O)OC
GI50 (NCI-H226 lung): 0.863 µM
TGI (NCI-H226 lung): 1.9 µM
GI50 (K-562 leukemia): 1.13 µM
TGI (K-562 leukemia): 50 µM
GI50 (HOP-92 NSCLC): 1.52 µM
TGI (HOP-92 NSCLC): 5.81 µM
GI50 (DU-145 prostate): 1.75 µM
TGI (DU-145 prostate): 7.26 µM
GI50 (HL-60(TB) leukemia): 1.31 µM
TGI (HL-60(TB) leukemia): 3.91 µM
GI50 (NCI/ADR-RES ovarian): 1.16 µM
TGI (NCI/ADR-RES ovarian): 3.4 µM
GI50 (TK-10 renal): 1.66 µM
TGI (TK-10 renal): 3.97 µM
GI50 (SK-MEL-2 melanoma): 0.995 µM
TGI (SK-MEL-2 melanoma): 2.76 µM

COc1cccc(OC(=O)c2ccc(C(F)(F)F)nc2Nc2c(C)cccc2Cl)c1
GI50 (T-47D breast): 18.7 µM
TGI (T-47D breast): > 100 µM
GI50 (NCI-H226 lung): 47.7 µM
TGI (NCI-H226 lung): > 100 µM
GI50 (K-562 leukemia): 36.5 µM
TGI (K-562 leukemia): > 100 µM
GI50 (HOP-92 NSCLC): 17.6 µM
TGI (HOP-92 NSCLC): 41.4 µM
GI50 (DU-145 prostate): 32.1 µM
TGI (DU-145 prostate): > 100 µM
GI50 (SK-MEL-2 melanoma): 19.4 µM
TGI (SK-MEL-2 melanoma): 45.9 µM

O=C1NC(O)c2ccccc2O1 (stereo unspecified)
TGI (NCI-H226 lung): > 100 µM
TGI (K-562 leukemia): > 100 µM
TGI (HOP-92 NSCLC): > 100 µM
TGI (KM12 colon): > 100 µM
TGI (DU-145 prostate): > 100 µM
TGI (HL-60(TB) leukemia): > 100 µM
TGI (NCI/ADR-RES ovarian): > 100 µM
TGI (TK-10 renal): > 100 µM
TGI (SK-MEL-2 melanoma): > 100 µM

C[C@]12CC[C@@H]3c4ccc(O)cc4CC[C@H]3[C@@H]1CC[C@@H]2NS(=O)(=O)c1cccc(Cl)c1
GI50 (T-47D breast): 3.49 µM
TGI (T-47D breast): 11.3 µM
GI50 (NCI-H226 lung): 1.9 µM
TGI (NCI-H226 lung): 4.61 µM
GI50 (K-562 leukemia): 3.14 µM
TGI (K-562 leukemia): 11.8 µM
GI50 (HOP-92 NSCLC): 2.08 µM
TGI (HOP-92 NSCLC): 5.69 µM
GI50 (KM12 colon): 1.96 µM
TGI (KM12 colon): 4.24 µM
GI50 (DU-145 prostate): 4.17 µM
TGI (DU-145 prostate): 14.9 µM
GI50 (NCI/ADR-RES ovarian): 2.39 µM
TGI (NCI/ADR-RES ovarian): 8.57 µM
GI50 (TK-10 renal): 3.46 µM
TGI (TK-10 renal): 11.2 µM
GI50 (SK-MEL-2 melanoma): 2.46 µM
TGI (SK-MEL-2 melanoma): 5.73 µM

O=C1CSC(c2ccc(-c3nc4ccccc4[nH]3)cc2)=N1
GI50 (T-47D breast): > 50 µM
TGI (T-47D breast): > 50 µM
GI50 (K-562 leukemia): 5.64 µM
TGI (K-562 leukemia): 17.5 µM
GI50 (HOP-92 NSCLC): > 50 µM
TGI (HOP-92 NSCLC): > 50 µM
GI50 (KM12 colon): 22.8 µM
TGI (KM12 colon): > 50 µM
GI50 (DU-145 prostate): 31.4 µM
TGI (DU-145 prostate): > 50 µM
GI50 (HL-60(TB) leukemia): > 50 µM
TGI (HL-60(TB) leukemia): > 50 µM
GI50 (NCI/ADR-RES ovarian): > 50 µM
TGI (NCI/ADR-RES ovarian): > 50 µM
GI50 (TK-10 renal): > 50 µM
TGI (TK-10 renal): > 50 µM
GI50 (SK-MEL-2 melanoma): 19 µM
TGI (SK-MEL-2 melanoma): > 50 µM

COc1cc2c3c(n(CCCCNC(=O)OC(C)(C)C)c(=O)c2cc1OC)-c1cc2c(cc1C3=O)OCO2
GI50 (T-47D breast): > 100 µM
TGI (T-47D breast): > 100 µM
GI50 (NCI-H226 lung): > 100 µM
TGI (NCI-H226 lung): > 100 µM
GI50 (K-562 leukemia): > 100 µM
TGI (K-562 leukemia): > 100 µM
GI50 (HOP-92 NSCLC): 60.3 µM
TGI (HOP-92 NSCLC): > 100 µM
GI50 (KM12 colon): > 100 µM
TGI (KM12 colon): > 100 µM
GI50 (DU-145 prostate): > 100 µM
TGI (DU-145 prostate): > 100 µM
GI50 (NCI/ADR-RES ovarian): > 100 µM
TGI (NCI/ADR-RES ovarian): > 100 µM
GI50 (TK-10 renal): > 100 µM
TGI (TK-10 renal): > 100 µM
GI50 (SK-MEL-2 melanoma): > 100 µM
TGI (SK-MEL-2 melanoma): > 100 µM

O=c1cc(-c2ccccc2)oc2ccc(OC/C(=N/O)c3ccc(F)cc3)cc12
GI50 (NCI-H226 lung): 13.6 µM
TGI (NCI-H226 lung): > 50 µM
GI50 (K-562 leukemia): 2.61 µM
TGI (K-562 leukemia): > 50 µM
GI50 (HOP-92 NSCLC): 11.4 µM
TGI (HOP-92 NSCLC): 41.5 µM
GI50 (KM12 colon): 1.6 µM
TGI (KM12 colon): 6.01 µM
GI50 (DU-145 prostate): 3.1 µM
TGI (DU-145 prostate): 15.6 µM
GI50 (HL-60(TB) leukemia): 1.97 µM
TGI (HL-60(TB) leukemia): 13.9 µM
GI50 (NCI/ADR-RES ovarian): 2.97 µM
TGI (NCI/ADR-RES ovarian): 12.8 µM
GI50 (TK-10 renal): > 50 µM
TGI (TK-10 renal): > 50 µM
GI50 (SK-MEL-2 melanoma): 12.3 µM
TGI (SK-MEL-2 melanoma): > 50 µM

CCN1C(=O)N(CC)C2C1NN=c1s/c(=C\c3cccs3)c(=O)n12 (stereo unspecified)
GI50 (NCI-H226 lung): 2.76 µM
TGI (NCI-H226 lung): > 23 µM
GI50 (K-562 leukemia): 0.0551 µM
TGI (K-562 leukemia): > 100 µM
GI50 (HOP-92 NSCLC): > 25.8 µM
TGI (HOP-92 NSCLC): > 100 µM
GI50 (KM12 colon): 0.0545 µM
TGI (KM12 colon): > 82.6 µM
GI50 (DU-145 prostate): 0.281 µM
TGI (DU-145 prostate): > 29.9 µM
GI50 (HL-60(TB) leukemia): 0.225 µM
TGI (HL-60(TB) leukemia): 0.707 µM
GI50 (NCI/ADR-RES ovarian): 0.0831 µM
TGI (NCI/ADR-RES ovarian): > 100 µM
GI50 (TK-10 renal): > 100 µM
TGI (TK-10 renal): > 100 µM
GI50 (SK-MEL-2 melanoma): 1.41 µM
TGI (SK-MEL-2 melanoma): > 100 µM

O=C(O)CNc1ccc(Cl)c(Cl)c1
TGI (T-47D breast): > 100 µM
TGI (NCI-H226 lung): > 100 µM
TGI (K-562 leukemia): 78.4 µM
TGI (HOP-92 NSCLC): 51.6 µM
TGI (KM12 colon): 55.1 µM
TGI (DU-145 prostate): > 100 µM
TGI (HL-60(TB) leukemia): 78.5 µM
TGI (NCI/ADR-RES ovarian): 84.6 µM
TGI (TK-10 renal): 58.7 µM

COc1cc(OC)cc(-c2nc3sccn3c2/C=N/N=C(N)N)c1
GI50 (T-47D breast): 7.23 µM
TGI (T-47D breast): 17.6 µM
GI50 (NCI-H226 lung): 6.96 µM
TGI (NCI-H226 lung): 14.8 µM
GI50 (K-562 leukemia): 9.7 µM
TGI (K-562 leukemia): 19 µM
GI50 (KM12 colon): 3.13 µM
TGI (KM12 colon): 10.3 µM
GI50 (NCI/ADR-RES ovarian): 26.4 µM
TGI (NCI/ADR-RES ovarian): > 50 µM
GI50 (TK-10 renal): 6.29 µM
TGI (TK-10 renal): 12.6 µM
GI50 (SK-MEL-2 melanoma): 16.7 µM
TGI (SK-MEL-2 melanoma): > 50 µM
